Results taken from patent publication US20230339991A1, “HYPOXIA-ACTIVATED DNA ALKYLATING AGENT AND MEDICAL USE THEREOF” (ASCENTAWITS PHARMACEUTICALS, LTD., priority 2020, published 2023).
“And” between values parts separate entries of the source, which are not always exact repeats. Equal values may be shown once. Marks after values point to notes of the source that are not given here.

Legend:
[1] = system: HuPrime model GA6201 human gastric cancer subcutaneous transplantation PDX tumor; test: GA6201 human gastric cancer subcutaneous PDX model; type: in vivo, BALB/c nude mice
AA8 = test: Cell inhibition of different species, normoxic, AA8; type: cell-based, Rat; conditions: IC50 AA8/H460
From the text: To further compare the cytotoxicity of TH-302 with that of compound A, the following further provide test results for H460 cell line and cells from different species at different test times in the same laboratory, with the same operator and under the same experimental conditions.

P-gp = P-gp (Homo sapiens, UniProt P08183); test: P-gp substrate evaluation, MDCKII-MDR1 penetration test; conditions: for recovery at 2 h: dog; for Pgp substrate status: with and without verapamil
Procedure: (1) MDCKII-MDR1 cells were cultured in the cell culture bottle. The conditions of the incubator were 37° C., 5% of CO2, and 95% of the relative humidity. When the cell growth confluence was up to 70-90%, the cells were inoculated to the transwell.
The cell suspension was transferred to the upper compartment of the 96-well transwell, wherein each upper compartment contains 50 μL of the cell suspension. The final inoculum density was 5.45×10^5 cells/cm^2.
(1) The transwell culture plate of the MDCKII-MDRT cells was taken out from the incubator. The cell monolayer membrane was rinsed two times with the buffer solution and incubated at 37° C. for 30 min.
(2) The transport rate that the compound was transported from the top-end to the base-end was tested. 75 μL of the buffer solution contained the sample was added to each upper compartment (top-end), and 235 μL of the buffer solution was added to each lower compartment (base-end).
(3) The transport rate that the compound was transported from the base-end to the top-end was tested. 75 μL of the buffer solution was added to each upper compartment (top-end), and 235 μL of the buffer solution contained the sample was added to each lower compartment (base-end).
(6) The upper and lower transits were merged up and then incubated at 37° C. for 2 h.
(7) After the incubation was finished, 50 μL of the samples from each well of the upper compartment and the lower compartment of the transwell culture plate were respectively added to new sample tubes. 200 μL of the acetonitrile containing the internal standard (100 nM Alprazolam, 200 nM Labetalol, 200 nM caffeine and 2 μM Ketoprofen) was added to each sample tube. After the sample tubes were vortexed for 10 min, they were centrifuged at 3220 g for 30 min. 100 μL of the supernatant was taken and diluted with the same volume of the water to perform the LC-MS/MS analysis. Each sample was adopted to the three parallel incubation.
The peak area was calculated by the result of the ion chromatography. The permeability coefficient (Papp, unit: cm/s×10^−6) of the compound was calculated by the formula: […]
In the formula, “VA” refers to the volume of the solution on the acceptor (Ap→Bl was 0.235 mL, and Bl→Ap was 0.075 mL), “Area” refers to the area of the permeable membrane of the 96-well transwell (0.143 cm^2), “time” refers to the incubation time (in second), “[drug]acceptor” refers to the drug concentration of the acceptor after the incubation, and “[drug]initial, donor” refers to the initial concentration of the drug administration before the incubation.
The efflux ratio was calculated by the following formula: […]
In the formula, “Papp (B-A)” refers to the permeability coefficient from the base-end to the top-end, and the term “Papp (A-B)” refers to the permeability coefficient from the top-end to the base-end.
The recovery was calculated by the following formula: […]
In the formula, “VA” refers to the volume of the solution on the acceptor (mL), “VD” refers to the volume of the solution on the donor (mL), “[drug]acceptor” refers to the drug concentration of the acceptor after the incubation, “[drug]donor” refers to the drug concentration of the donor after the incubation, and the term “[drug]initial, donor” refers to the initial concentration of the drug administration before the incubation.

[2] = Blood-brain barrier experiment, brain and plasma concentrations after IV dosing; type: in vivo, CD-1 mice; conditions: CD-1, mouse; for Kp at 0.25 h / Kp at 2 h: brain/plasma, iv, 1 mg/kg; for Kp at 0.25 h: read-out: Mean Ratio (Brain/Plasma); for Kp at 2 h: single animals, read-out: Ratio (Brain/Plasma); for Cmax / Tmax: brain tissue; for Cmax / Tmax / AUC: IV 1 mg/kg; for AUC: plasma
Plasma stability, human = type: in vitro ADME; conditions: for Remaining percentage: after 30 minutes, 5 μM, 37° C.; for plasma stability: human plasma
Procedure: The pH of the plasma was checked and recorded. Note: a.
The final concentration of solvent was 0.5%.
The assay is performed in duplicate.

Plasma stability, dog = conditions: for Remaining percentage: after 30 minutes
Procedure: The frozen plasma was immediately melted in a water bath of 37° C. The plasma was centrifuged at 3, 220 g for 10 minutes to remove the blood clots and the supernatant was collected into a new test tube. The pH of the plasma was checked and recorded. Note: a. Only plasma that has been melted no more than twice since arrival was used; b. Only plasma in the range of pH 7 to pH 8 was used.
1 mM of working solutions of the test compound and the control compound mevinolin were prepared in DMSO. 1 mM of the working solution of the control compound solution in […] was prepared in acetonitrile. 4 μL of the working solution was added to 796 μL of pre-incubated plasma to achieve 5 μM of final concentration. The final concentration of solvent was 0.5%.
The aliquots of 50 μL of the standard addition plasma were added to new test tubes and incubated in the water bath of 37° C. at approximately 60 rpm for 2 hours. The assay is performed in duplicate. At the end of the two hour incubation, 300 μL of quenched solution at room temperature (acetonitrile containing internal standards (acetonitrile, 100 nM Alprazolam, 500 nM Labetalol and 2 μM ketoprofen)) was added to terminate the reaction. Samples at time 0 were prepared by adding 50 μL of standard addition plasma to the new test tubes with 300 μL of quenched solution at room temperature. The test tubes were mixed by vortex for 5 minutes. The samples in the plates were centrifuged at 3, 220×g for 30 minutes at 4° C. to precipitate the proteins. 100 μL of supernatant was transferred to a new plate. The supernatant was diluted with 100 μL of water, mixed well and analysed using LC-MS/MS.

[3] = MDCK-MDR1, Recovery (%) AP-BL, verapamil 0 μM
[4] = MDCK-MDR1, Recovery (%) AP-BL, verapamil 100 μM
[5] = MDCK-MDR1, Recovery (%) BL-AP, verapamil 100 μM

Sequence of P-gp (P08183 whole entry): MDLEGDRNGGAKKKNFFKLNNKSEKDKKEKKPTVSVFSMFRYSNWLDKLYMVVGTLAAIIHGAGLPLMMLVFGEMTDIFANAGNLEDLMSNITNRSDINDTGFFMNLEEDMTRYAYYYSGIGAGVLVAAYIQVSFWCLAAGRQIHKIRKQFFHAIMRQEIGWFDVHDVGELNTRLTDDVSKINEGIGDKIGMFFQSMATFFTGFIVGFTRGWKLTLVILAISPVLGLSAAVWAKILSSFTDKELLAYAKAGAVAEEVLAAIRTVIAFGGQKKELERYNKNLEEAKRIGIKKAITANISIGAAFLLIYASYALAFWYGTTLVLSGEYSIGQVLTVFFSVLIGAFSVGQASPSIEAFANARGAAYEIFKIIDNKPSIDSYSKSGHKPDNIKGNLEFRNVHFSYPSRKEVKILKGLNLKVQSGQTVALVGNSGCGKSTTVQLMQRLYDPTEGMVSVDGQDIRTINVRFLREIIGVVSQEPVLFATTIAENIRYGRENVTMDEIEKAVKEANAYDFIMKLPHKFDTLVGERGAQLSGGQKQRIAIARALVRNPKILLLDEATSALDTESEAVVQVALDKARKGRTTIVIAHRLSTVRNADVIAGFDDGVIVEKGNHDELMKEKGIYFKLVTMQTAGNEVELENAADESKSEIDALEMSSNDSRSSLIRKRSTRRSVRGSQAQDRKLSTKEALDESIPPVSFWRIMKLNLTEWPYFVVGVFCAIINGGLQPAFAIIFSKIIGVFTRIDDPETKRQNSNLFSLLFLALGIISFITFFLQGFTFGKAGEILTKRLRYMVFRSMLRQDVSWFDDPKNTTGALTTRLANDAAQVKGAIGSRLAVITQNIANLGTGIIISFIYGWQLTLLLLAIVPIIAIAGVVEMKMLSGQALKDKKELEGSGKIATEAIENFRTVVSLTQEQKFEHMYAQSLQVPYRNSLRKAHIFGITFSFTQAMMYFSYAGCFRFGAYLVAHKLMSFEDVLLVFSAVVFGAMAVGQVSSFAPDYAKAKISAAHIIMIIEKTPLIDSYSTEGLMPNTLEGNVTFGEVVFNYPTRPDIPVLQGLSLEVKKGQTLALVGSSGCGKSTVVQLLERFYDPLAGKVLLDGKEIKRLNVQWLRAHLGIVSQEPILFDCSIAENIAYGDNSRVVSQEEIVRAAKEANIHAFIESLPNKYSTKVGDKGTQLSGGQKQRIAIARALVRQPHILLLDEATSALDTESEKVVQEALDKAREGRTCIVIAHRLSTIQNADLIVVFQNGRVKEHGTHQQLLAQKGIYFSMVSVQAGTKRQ

Cn1c(COP(=O)(NCCBr)NCCBr)cnc1[N+](=O)[O-] [TH-302, Evofosfamide]
tumor volume ([1]; Group 02, 60 mg/kg i.p., day 3): 122.22 mm^3
tumor volume ([1]; Group 02, 60 mg/kg i.p., day 7): 129.39 mm^3
tumor volume ([1]; Group 02, 60 mg/kg i.p., day 10): 175.00 mm^3
tumor volume ([1]; Group 02, 60 mg/kg i.p., day 14): 190.74 mm^3
tumor volume ([1]; Group 02, 60 mg/kg i.p., day 17): 189.23 mm^3
tumor volume ([1]; Group 02, 60 mg/kg i.p., day 21): 217.96 mm^3
tumor volume ([1]; Group 02, 60 mg/kg i.p., day 24): 225.66 mm^3
tumor volume ([1]; Group 02, 60 mg/kg i.p., day 28): 247.04 mm^3
tumor volume ([1]; Group 02, 60 mg/kg i.p., day 31): 265.76 mm^3
tumor volume ([1]; Group 02, 60 mg/kg i.p., day 35): 324.51 mm^3
tumor volume ([1]; Group 02, 60 mg/kg i.p., day 38): 371.02 mm^3
tumor volume ([1]; Group 02, 60 mg/kg i.p., day 42): 403.47 mm^3
tumor volume ([1]; Group 02, 60 mg/kg i.p., day 45): 484.83 mm^3
tumor volume ([1]; Group 02, 60 mg/kg i.p., day 49): 578.60 mm^3
tumor volume ([1]; Group 02, 60 mg/kg, QDx5/week × 2 wks, i.p., day 0): 94.15 mm^3
Multiplier: Rat/Human (AA8; exposure 2 h): 41.5

O=[N+]([O-])c1ccc([C@H](OP(=O)(N2CC2)N2CC2)C(F)(F)F)c2ccccc12 [Compound B]
recovery at 2 h (P-gp; [3]): 59.3%
recovery at 2 h (P-gp; [4]): 65.2%
recovery at 2 h (P-gp; [5]): 68.3%
Pgp substrate status (P-gp): not substrates for Pgp
Kp at 0.25 h [2]: 1.59
Kp at 2 h [2]: 1.38
Cmax [2]: 983 ng/g
Tmax [2]: 4.8 min
AUC [2]: 289 ng·h/mL

O=[N+]([O-])c1ccc(C(OP(=O)(N2CC2)N2CC2)C(F)(F)F)c2ccccc12 (racemic) [Compound A]
Remaining percentage (%) (Plasma stability, human; Human plasma, 15 min): 108 ± 0.773%
Remaining percentage (%) (Plasma stability, human; Human plasma, 60 min): 99.2 ± 3.39%
Remaining percentage (%) (Plasma stability, human; Human plasma, 90 min): 93.8 ± 3.12%
Remaining percentage (%) (Plasma stability, human; Human plasma, 120 min): 89.7% and 89.7 ± 4.43%
Remaining percentage (%) (Plasma stability, human; Human plasma, 2 h time course, 0 min): 100%
Remaining percentage (Plasma stability, human; Human plasma): 68.68%
t½ (Plasma stability, human; Human plasma, in vitro): >373* min
half-life at 5 µM (Plasma stability, human; Human plasma, in vitro, read-out: t½): > 373 min
Remaining percentage (%) (Plasma stability, human; Human plasma, time course, 30 min): 102 ± 3.85%
plasma stability (Plasma stability, human): stable
effect of tumor growth inhibition compared with isocyclophosphamide ([1]; GA6201 PDX): significant advantages
tumor volume ([1]; Group 06, 5-50 mg/kg regimen, day 7): 123.19 mm^3
tumor volume ([1]; Group 06, 5-50 mg/kg regimen, day 17): 219.91 mm^3
tumor volume ([1]; Group 06, 5-50 mg/kg regimen, day 21): 246.57 mm^3
tumor volume ([1]; Group 06, 5-50 mg/kg regimen, day 24): 271.72 mm^3
tumor volume ([1]; Group 06, 5-50 mg/kg regimen, day 31): 270.68 mm^3
tumor volume ([1]; Group 06, 5-50 mg/kg regimen, day 35): 299.31 mm^3
tumor volume ([1]; Group 06, 5-50 mg/kg regimen, day 38): 277.17 mm^3
tumor volume ([1]; Group 06, 5-50 mg/kg regimen, day 45): 342.08 mm^3
tumor volume ([1]; Group 06, 5-50 mg/kg regimen, day 49): 287.47 mm^3
Multiplier: Rat/Human (AA8; exposure 3 days): 110
Remaining percentage (%) (Plasma stability, dog; Dog plasma, 15 min): 107 ± 2.54%
Remaining percentage (%) (Plasma stability, dog; Dog plasma, 60 min): 101 ± 5.20%
Remaining percentage (%) (Plasma stability, dog; Dog plasma, 90 min): 105 ± 3.67%
Remaining percentage (%) (Plasma stability, dog; Dog plasma, 120 min): 98.9% and 98.9 ± 0.476%
Remaining percentage (%) (Plasma stability, dog; Dog plasma, 2 h time course, 0 min): 100%
Remaining percentage (Plasma stability, dog; Dog plasma): 85.04%
t½ (Plasma stability, dog; Dog plasma, in vitro): >373* min
Remaining percentage (%) (Plasma stability, dog; Dog plasma, time course, 30 min): 105 ± 1.27%
half-life at 5 µM (Plasma stability, dog; dog plasma): > 373 min
plasma stability (Plasma stability, dog; dog plasma): stable

O=[N+]([O-])c1ccc([C@@H](OP(=O)(N2CC2)N2CC2)C(F)(F)F)c2ccccc12 (single isomer, unassigned) [Compound C]
recovery at 2 h (P-gp; [3]): 57.8%
recovery at 2 h (P-gp; [4]): 61.5%
recovery at 2 h (P-gp; [5]): 66.3%
Pgp substrate status (P-gp): not substrates for Pgp
Kp at 0.25 h [2]: 0.86
Kp at 2 h [2]: 1.35
Cmax [2]: 445 ng/g
Tmax [2]: 4.8 min
AUC [2]: 190 ng·h/mL

CC(OP(=O)(N1CC1)N1CC1)c1ccc([N+](=O)[O-])c2ccccc12 (stereo not drawn) [Compound D]
Remaining percentage (Plasma stability, human; Human plasma): 97.06%
plasma stability (Plasma stability, human): secondarily
Remaining percentage (Plasma stability, dog; Dog plasma): 91.95%
plasma stability (Plasma stability, dog; dog plasma): relatively stable
